Values joined by “and” are separate entries in the source; they are usually repeats but may differ in a detail not shown here. Equal entries are not always repeated. Toxic doses and inconclusive results are not listed.
Tested on: B6C3F1 mice, Lewis lung carcinoma iv, survival T/C
Test: NCI In Vivo Anticancer Drug Screen. Data for tumor model Lewis Lung Carcinoma (intravenous) in B6C3F1 mice
Settings: endpoint: median survival time, higher = longer survival
Procedure, shortened: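 T/C ratio derived from survival of compound-treated versus vehicle-treated mice bearing transplantable tumors.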

[1] = dose: 50.0 mg/kg/injection, schedule: Q01DX009 (ip), vehicle: saline with Tween-80
[2] = dose: 100.0 mg/kg/injection, schedule: Q01DX009 (ip), vehicle: saline with Tween-80
[3] = dose: 200.0 mg/kg/injection, schedule: Q01DX009 (ip), vehicle: saline with Tween-80
[4] = dose: 400.0 mg/kg/injection, schedule: Q01DX009 (ip), vehicle: saline with Tween-80
[5] = dose: 25.0 mg/kg/injection, schedule: Q01DX009 (ip), vehicle: saline with Tween-80
[6] = dose: 1.56 mg/kg/injection, schedule: Q01DX009 (ip), vehicle: saline with Tween-80
[7] = dose: 3.12 mg/kg/injection, schedule: Q01DX009 (ip), vehicle: saline with Tween-80
[8] = dose: 6.25 mg/kg/injection, schedule: Q01DX009 (ip), vehicle: saline with Tween-80
[9] = dose: 12.5 mg/kg/injection, schedule: Q01DX009 (ip), vehicle: saline with Tween-80

O=c1[nH]cc(F)c(=O)[nH]1
T/C (dose: 5.0 mg/kg/injection, schedule: Q01DX009 (ip), vehicle: saline): 105 % of control | T/C (dose: 10.0 mg/kg/injection, schedule: Q01DX009 (ip), vehicle: saline): 97 % of control and 102 % of control | T/C (dose: 20.0 mg/kg/injection, schedule: Q01DX009 (ip), vehicle: saline): 107 % of control

C[C@H](N)C(=O)N[C@@H]1[C@H]2C(=C(O)C[C@@H](O)[C@@H]2O)C(=O)O[C@]1(C)C(Cl)Cl
T/C (dose: 0.19 mg/kg/injection, schedule: Q01DX009 (ip), vehicle: Klucel (hydroxypropylcellulose) (HPC)): 97 % of control | T/C (dose: 0.38 mg/kg/injection, schedule: Q01DX009 (ip), vehicle: Klucel (hydroxypropylcellulose) (HPC)): 101 % of control | T/C (dose: 0.75 mg/kg/injection, schedule: Q01DX009 (ip), vehicle: Klucel (hydroxypropylcellulose) (HPC)): 111 % of control | T/C (dose: 1.5 mg/kg/injection, schedule: Q01DX009 (ip), vehicle: Klucel (hydroxypropylcellulose) (HPC)): 100 % of control

Cc1cc(N)c2ccccc2[n+]1CCCCCCCCCC[n+]1c(C)cc(N)c2ccccc21
T/C (dose: 0.12 mg/kg/injection, schedule: Q01DX026 (ip), vehicle: dextrose): 93 % of control | T/C (dose: 0.25 mg/kg/injection, schedule: Q01DX026 (ip), vehicle: dextrose): 104 % of control | T/C (dose: 0.5 mg/kg/injection, schedule: Q01DX026 (ip), vehicle: dextrose): 96 % of control | T/C (dose: 0.75 mg/kg/injection, schedule: Q01DX009 (ip), vehicle: dextrose): 101 % of control | T/C (dose: 1.0 mg/kg/injection, schedule: Q01DX026 (ip), vehicle: dextrose): 99 % of control | T/C (dose: 1.5 mg/kg/injection, schedule: Q01DX009 (ip), vehicle: dextrose): 95 % of control | T/C (dose: 2.0 mg/kg/injection, schedule: Q01DX026 (ip), vehicle: dextrose): 103 % of control | T/C (dose: 3.0 mg/kg/injection, schedule: Q01DX009 (ip), vehicle: dextrose): 104 % of control

CCCCCC#CC1OC12CCCCC2 (stereo not given)
T/C [1]: 102 % of control | T/C [2]: 100 % of control | T/C [3]: 88 % of control | T/C [4]: 91 % of control

CCOC(=O)N1Cc2cc3cc(Cl)ccc3nc2C1
T/C (dose: 7.5 mg/kg/injection, schedule: Q01DX009 (ip), vehicle: saline with Tween-80): 100 % of control | T/C (dose: 15.0 mg/kg/injection, schedule: Q01DX009 (ip), vehicle: saline with Tween-80): 98 % of control | T/C (dose: 30.0 mg/kg/injection, schedule: Q01DX009 (ip), vehicle: saline with Tween-80): 100 % of control | T/C (dose: 60.0 mg/kg/injection, schedule: Q01DX009 (ip), vehicle: saline with Tween-80): 100 % of control | T/C (dose: 120.0 mg/kg/injection, schedule: Q01DX009 (ip), vehicle: saline with Tween-80): 105 % of control

Cc1cn(C2CC(F)C(CO)O2)c(=O)[nH]c1=O (stereo not given)
T/C (dose: 12.5 mg/kg/injection, schedule: Q01DX009 (ip), vehicle: suspension in saline): 106 % of control | T/C (dose: 25.0 mg/kg/injection, schedule: Q01DX009 (ip), vehicle: suspension in saline): 103 % of control | T/C (dose: 50.0 mg/kg/injection, schedule: Q01DX009 (ip), vehicle: suspension in saline): 106 % of control | T/C (dose: 100.0 mg/kg/injection, schedule: Q01DX009 (ip), vehicle: suspension in saline): 100 % of control | T/C (dose: 200.0 mg/kg/injection, schedule: Q01DX009 (ip), vehicle: suspension in saline): 121 % of control | T/C (dose: 400.0 mg/kg/injection, schedule: Q01DX009 (ip), vehicle: suspension in saline): 122 % of control

Nc1n[nH]c(N)n1
T/C (dose: 100.0 mg/kg/injection, schedule: Q01DX009 (ip), vehicle: saline): 109 % of control | T/C (dose: 200.0 mg/kg/injection, schedule: Q01DX009 (ip), vehicle: saline): 109 % of control | T/C (dose: 400.0 mg/kg/injection, schedule: Q01DX009 (ip), vehicle: saline): 106 % of control | T/C (dose: 800.0 mg/kg/injection, schedule: Q01DX009 (ip), vehicle: saline): 115 % of control

O=C1SC(c2ccccc2)=S=C1c1ccccc1
T/C [5]: 100 % of control | T/C [1]: 93 % of control | T/C [2]: 95 % of control | T/C [3]: 104 % of control | T/C [4]: 108 % of control

O/N=C/c1ccccc1O.O/N=C/c1ccccc1O.[Cu]
T/C [6]: 113 % of control | T/C [7]: 100 % of control | T/C [8]: 104 % of control | T/C [9]: 96 % of control | T/C [5]: 104 % of control | T/C [1]: 96 % of control

O=C(O)CCCCCCCC(=O)O
T/C (dose: 12.5 mg/kg/injection, schedule: Q01DX009 (ip), vehicle: distilled water + Tween-80): 100 % of control | T/C (dose: 25.0 mg/kg/injection, schedule: Q01DX009 (ip), vehicle: distilled water + Tween-80): 99 % of control | T/C (dose: 50.0 mg/kg/injection, schedule: Q01DX009 (ip), vehicle: distilled water + Tween-80): 100 % of control | T/C (dose: 100.0 mg/kg/injection, schedule: Q01DX009 (ip), vehicle: distilled water + Tween-80): 98 % of control

O=NN(CCF)C(=O)NC1CCCCC1
T/C (dose: 2.5 mg/kg/injection, schedule: Q01DX009 (ip), vehicle: saline with Tween-80): 109 % of control | T/C (dose: 3.12 mg/kg/injection, schedule: Q01DX009 (ip), vehicle: Klucel (hydroxypropylcellulose) (HPC)): 107 % of control | T/C (dose: 5.0 mg/kg/injection, schedule: Q01DX009 (ip), vehicle: saline with Tween-80): 109 % of control | T/C (dose: 10.0 mg/kg/injection, schedule: Q01DX009 (ip), vehicle: saline with Tween-80): 155 % of control | T/C (dose: 12.5 mg/kg/injection, schedule: Q01DX009 (ip), vehicle: Klucel (hydroxypropylcellulose) (HPC)): 269 % of control and 291 % of control | T/C (dose: 20.0 mg/kg/injection, schedule: Q01DX009 (ip), vehicle: saline with Tween-80): 229 % of control | T/C (dose: 25.0 mg/kg/injection, schedule: Q01DX009 (ip), vehicle: Klucel (hydroxypropylcellulose) (HPC)): 227 % of control

COC(=O)[C@@]12OC[C@]34[C@H]([C@@H](O)[C@@H]1O)[C@@]1(C)CC(=O)C(O)=C(C)[C@@H]1C[C@H]3OC(=O)[C@H](OC(=O)/C=C(\C)C(C)C)[C@@H]24
T/C (dose: 0.25 mg/kg/injection, schedule: Q01DX009 (ip), vehicle: saline + alcohol): 102 % of control | T/C (dose: 0.5 mg/kg/injection, schedule: Q01DX009 (ip), vehicle: saline + alcohol): 104 % of control | T/C (dose: 1.0 mg/kg/injection, schedule: Q01DX009 (ip), vehicle: saline + alcohol): 107 % of control

C[CH2][Sn]([CH2]C)([CH2]C(=O)OC)[CH2]C(=O)OC
T/C (dose: 0.78 mg/kg/injection, schedule: Q01DX009 (ip), vehicle: saline with Tween-80): 102 % of control | T/C [6]: 104 % of control | T/C [7]: 99 % of control | T/C [8]: 101 % of control | T/C [9]: 104 % of control and 105 % of control

CN(Cc1cnc2nc(N)nc(N)c2n1)c1ccc(C(=O)N[C@@H](CCC(=O)O)C(=O)O)cc1
T/C (dose: 1.0 mg/kg/injection, schedule: Q01DX009 (ip), vehicle: sodium bicarbonate): 102 % of control | T/C (dose: 2.0 mg/kg/injection, schedule: Q01DX009 (ip), vehicle: sodium bicarbonate): 107 % of control and 88 % of control | T/C (dose: 4.0 mg/kg/injection, schedule: Q01DX009 (ip), vehicle: sodium bicarbonate): 96 % of control and 102 % of control

Cc1c(N)nc(C(CC(N)=O)NCC(N)C(N)=O)nc1C(=O)NC(C(=O)NC(C)C(O)C(C)C(=O)NC(C(=O)NCCc1nc(-c2nc(C(=O)NCCCNCCCc3ccccn3)cs2)cs1)C(C)O)C(OC1OC(CO)C(O)C(O)C1OC1OC(CO)C(O)C(OC(N)=O)C1O)c1cnc[nH]1 (stereo not given)
T/C (dose: 2.0 mg/kg/injection, schedule: Q01DX009 (ip), vehicle: saline): 113 % of control | T/C (dose: 3.0 mg/kg/injection, schedule: Q01DX009 (ip), vehicle: saline + alcohol): 108 % of control | T/C (dose: 4.0 mg/kg/injection, schedule: Q01DX009 (ip), vehicle: saline): 110 % of control | T/C (dose: 6.0 mg/kg/injection, schedule: Q01DX009 (ip), vehicle: saline + alcohol): 108 % of control | T/C (dose: 6.25 mg/kg/injection, schedule: Q01DX009 (ip), vehicle: saline): 122 % of control | T/C (dose: 8.0 mg/kg/injection, schedule: Q01DX009 (ip), vehicle: saline): 114 % of control | T/C (dose: 12.0 mg/kg/injection, schedule: Q01DX009 (ip), vehicle: saline + alcohol): 123 % of control | T/C (dose: 12.5 mg/kg/injection, schedule: Q01DX009 (ip), vehicle: saline): 123 % of control

Source: PubChem BioAssay AID276 (DTP/NCI, 2004)
